Experimental findings from ChEMBL document CHEMBL1201862, “PubChem BioAssay data set” (2004) are described below.

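Interpolation was linear, between the two tested concentrations surrounding the appropriate level; five concentrations were tested over 48 hours in 96-well plates. Here, GI50 denotes the concentration required for 50% inhibition of growth.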 Active and inactive are the calls of the source. Cut-off read from the data, not from the text of the source: active = GI50 up to about 1.1 µM and inactive = higher.

Assay in all cases: NCI tumour cell line growth inhibition, 48 h
Test [1] deals with SK-MEL-5.
Test [2] concerns RPMI-8226.
Test [3] deals with NCI-H23.
Test [4] has as its system HOP-92.
The test system of test [5] is SK-MEL-28.
Test [6] deals with BT-549.
In test [7] the test system is MCF7.
Test [8] concerns NCI/ADR-RES.
Test [9] has as its system 786-0.
Test [10] deals with HCC 2998.
In test [11] the test system is UO-31.
Test [12] deals with SN12C.
Test [13] relates to RXF 393.
Test [14] concerns SF-539.
In test [15] the test system is Malme-3M.
The test system of test [16] is NCI-H522.
For test [17], the system named is SK-OV-3.
Test [18] deals with CAKI-1.
In test [19] the test system is SR.

Take `CCOC(=O)/C=C(\C(=O)OCC)n1cc(C)c(=O)n(Cc2cnnn2COCCOC(C)=O)c1=O`: the GI50 was 19.7 µM (inactive) in test [1]; 6.24 µM (inactive) in [2]; 17.5 µM (inactive) in test [3]; 1.92 µM (inactive) in test [4]; 9.89 µM (inactive) in [5]; 5.52 µM (inactive) in test [6]. For the same compound, the GI50 is 5.31 µM (inactive) in test [7]; 16.1 µM (inactive) in test [8]; 3.93 µM (inactive) in [9]; 16.6 µM (inactive) in test [10]; 14.4 µM (inactive) in [11]; 16 µM (inactive) in test [12]. The GI50 was 3.28 µM (inactive) in test [13]; 2.2 µM (inactive) in [14]; 1.48 µM (inactive) in [15]; 1.21 µM (inactive) in test [16]; 55.7 µM (inactive) in [17]; 3.13 µM (inactive) in [18].
Turning to `Nc1nc(N)c2ncn(Cc3ccccc3)c2n1`, the GI50 in [1], in [2], in test [3], in [4], in test [5] and in [6] was > 100 µM (inactive) each time. Further, the GI50 in [7], in test [8], in [9], in test [10], in test [11] and in test [12] was > 100 µM (inactive) each time. Also, the GI50 in test [13], in test [14], in [15], in test [16], in test [17] and in test [18] was > 100 µM (inactive) each time.
For `CC12CC(C#N)(C#N)C(C#N)(CO1)C(=N)O2` (configuration not stated), the GI50 in test [1] is > 100 µM (inactive); in test [3] it was > 100 µM (inactive); in [4], 52.7 µM (inactive); in test [5] it was > 100 µM (inactive); in test [6], > 100 µM (inactive); in test [7], > 100 µM (inactive). Also, the GI50 in test [8] is 71.1 µM (inactive); in [9], > 100 µM (inactive); in test [10], > 100 µM (inactive); in test [11], > 100 µM (inactive); in test [12] it was > 100 µM (inactive); in test [13] it was 59.7 µM (inactive). For the same compound, the GI50 is > 100 µM (inactive) in [14], 24.2 µM (inactive) in [15], > 100 µM (inactive) in test [17] and 31.8 µM (inactive) in test [18].
As to `C=CC(O)(CBr)CCC(Br)C(C)(C)Cl` (configuration not stated), the GI50 in test [1], in [2], in test [3], in [4], in test [5] and in test [6] was > 10 µM (inactive) each time. For the same compound, the GI50 in test [7], in test [8], in test [9], in test [10], in test [11] and in test [12] was > 10 µM (inactive) in each case. The GI50 in test [13], in test [14], in [15], in test [16], in test [17] and in test [18] was > 10 µM (inactive) in each case.
For the compound `O=C(O)c1ccc(N2C=[N+]3C(=Nc4ccccc43)C2)cc1`, the GI50 in test [1], in test [2], in [3], in test [5], in test [6] and in [7] was > 100 µM (inactive) each time. Also, the GI50 in [8], in test [9], in test [10], in [11], in test [12] and in test [13] was > 100 µM (inactive) throughout. Moreover, the GI50 in test [15] is 0.475 µM (active); in test [16], > 100 µM (inactive); in [17] it was > 100 µM (inactive); in [18], > 100 µM (inactive).
As to `CC(C)Oc1c(C2(c3ccccc3)SCCCS2)c(=O)c1=O`, the GI50 in [1], in [3], in [4], in [5], in [6] and in test [7] was > 100 µM (inactive) throughout. Besides, the GI50 in test [8], in test [9], in test [11], in [12], in [13] and in test [14] was > 100 µM (inactive) in each case. For the same compound, the values for the GI50 in test [16], in test [17] and in test [18] were 24.7 µM (inactive), > 100 µM (inactive) and > 100 µM (inactive), respectively.
Turning to `Cn1c(COC(=O)NC2CCCCC2)c(COC(=O)NC2CCCCC2)c2ccc3cc(C=O)ccc3c21`, the GI50 in test [1] was > 100 µM (inactive); in test [3] it was > 100 µM (inactive); in test [4], 32 µM (inactive); in test [6] it was > 100 µM (inactive); in test [7], > 100 µM (inactive); in [8], > 100 µM (inactive). The GI50 is 83.6 µM (inactive) in test [9]; > 100 µM (inactive) in test [10]; > 100 µM (inactive) in [11]; > 100 µM (inactive) in test [12]; 51.1 µM (inactive) in [13]; > 100 µM (inactive) in test [14]. For the same compound, the GI50 in [15], in [17] and in test [18] was > 100 µM (inactive) throughout.
As for `CC(C)(C)OC(=O)N1[C@@H]2Cc3ccc(N)cc3[C@@]1(C)c1ccccc12`, the GI50 in [1] was 0.9 µM (active); in test [2] it was 21.8 µM (inactive); in test [3], 19.3 µM (inactive); in test [4] it was 23.9 µM (inactive); in test [6] it was 18.7 µM (inactive); in [7], 34.1 µM (inactive). Moreover, the GI50 was 22.4 µM (inactive) in test [8]; 19.1 µM (inactive) in test [9]; 21.3 µM (inactive) in [10]; 40.6 µM (inactive) in test [11]; 16.8 µM (inactive) in [12]; 15 µM (inactive) in test [13]. In addition, the GI50 in test [15] was 29.9 µM (inactive); in test [16] it was 12.2 µM (inactive); in test [17], 34 µM (inactive); in [18] it was 45.2 µM (inactive).
For the compound `O=c1/c(=C/c2ccc([N+](=O)[O-])o2)sc2n1[C@@H](c1ccc(Cl)cc1)C=C(c1cc(F)c(Cl)cc1Cl)N=2`, the GI50 in test [1] is 13.9 µM (inactive); in test [2], 5.16 µM (inactive); in [3], 15.3 µM (inactive); in test [4], 12.9 µM (inactive); in test [5] it was 24.2 µM (inactive); in test [6], 15.1 µM (inactive). Besides, the GI50 in [7] was 13.3 µM (inactive); in [8], 30.8 µM (inactive); in test [9] it was 4.71 µM (inactive); in test [11], 14.7 µM (inactive); in test [12], 5.5 µM (inactive); in [13], 13.2 µM (inactive). Besides, the GI50 in test [14] was 22.4 µM (inactive); in [15], 17.9 µM (inactive); in test [16], 18.3 µM (inactive); in test [17], 14.8 µM (inactive); in [18] it was 28.7 µM (inactive).
Consider `CC(C)c1ccc(NC(=S)NC(=O)c2ccccc2)cc1`, for which the GI50 in test [1] is 13.4 µM (inactive); in test [2], 23.7 µM (inactive); in [3], 23 µM (inactive); in test [4], 40.9 µM (inactive); in [5] it was 20.8 µM (inactive); in test [6] it was 24.9 µM (inactive). For the same compound, the GI50 in [7] is 18.4 µM (inactive); in test [8], 31.7 µM (inactive); in test [9], 18.4 µM (inactive); in test [10], 16 µM (inactive); in test [11] it was 3.94 µM (inactive); in [12] it was 34.6 µM (inactive). Moreover, the GI50 in test [13] is 18.6 µM (inactive); in test [14] it was 36.2 µM (inactive); in test [15], 24.5 µM (inactive); in test [16], 17.4 µM (inactive); in [17], 42 µM (inactive); in [18], 20.5 µM (inactive).
Take `COc1ccc(N[S+]([O-])CCCc2ccccc2)cc1` (configuration not stated): the GI50 in [1] was 44.8 µM (inactive); in test [2], 70 µM (inactive); in test [3], > 100 µM (inactive); in test [5], > 100 µM (inactive); in test [6] it was 4.16 µM (inactive); in [7] it was 81.1 µM (inactive). For the same compound, the GI50 in test [8] was 58.1 µM (inactive); in test [19] it was 88.5 µM (inactive); in test [9] it was > 100 µM (inactive); in test [11], 38.7 µM (inactive); in test [12], > 100 µM (inactive); in [14] it was > 100 µM (inactive). In addition, the GI50 in [15] was > 100 µM (inactive); in test [16], 24.1 µM (inactive).
`N#Cc1c(-c2ccc([N+](=O)[O-])cc2)c(C#N)c(=O)n(NS(=O)(=O)c2ccccc2)c1S`: the GI50 in [1] was 10.8 µM (inactive); in [2], 20.5 µM (inactive); in test [4] it was > 100 µM (inactive); in test [5], 61.9 µM (inactive); in [6], 15.5 µM (inactive); in test [7], 31.4 µM (inactive). The GI50 in test [8] was 50.6 µM (inactive); in test [9] it was 32.1 µM (inactive); in [10], 40.6 µM (inactive); in test [12], 17.4 µM (inactive); in test [13], 33 µM (inactive); in test [14], 20 µM (inactive). In addition, the GI50 in test [15] was 48.1 µM (inactive); in [16], 21.2 µM (inactive); in test [17], 79.8 µM (inactive); in [18] it was 66.4 µM (inactive).
